The compounds below were run against T1, FaGT2* (Fragaria x ananassa, UniProt Q66PF4) (assay: radiochemical UDP-[…]glucose transfer assay, butanol extraction, LSC; Hanes-Woolf and non-linear fit). Conditions: 100 mM Tris-HCl pH 7.0, 30 °C, 30 min, fixed UDP-glucose (10 010 pmol); GST fusion.
T1 construct: gene GT2; full-length ORF, N-terminal GST tag kept (pGEX-4T-1), E. coli BL21(DE3) pLysS; natural allele of FaGT2 with eight amino acid differences, of which R230, E420, I422 (FaGT2: S230, D420, V422) are given
T1 sequence (Q66PF4 whole entry, the tested form may be a part): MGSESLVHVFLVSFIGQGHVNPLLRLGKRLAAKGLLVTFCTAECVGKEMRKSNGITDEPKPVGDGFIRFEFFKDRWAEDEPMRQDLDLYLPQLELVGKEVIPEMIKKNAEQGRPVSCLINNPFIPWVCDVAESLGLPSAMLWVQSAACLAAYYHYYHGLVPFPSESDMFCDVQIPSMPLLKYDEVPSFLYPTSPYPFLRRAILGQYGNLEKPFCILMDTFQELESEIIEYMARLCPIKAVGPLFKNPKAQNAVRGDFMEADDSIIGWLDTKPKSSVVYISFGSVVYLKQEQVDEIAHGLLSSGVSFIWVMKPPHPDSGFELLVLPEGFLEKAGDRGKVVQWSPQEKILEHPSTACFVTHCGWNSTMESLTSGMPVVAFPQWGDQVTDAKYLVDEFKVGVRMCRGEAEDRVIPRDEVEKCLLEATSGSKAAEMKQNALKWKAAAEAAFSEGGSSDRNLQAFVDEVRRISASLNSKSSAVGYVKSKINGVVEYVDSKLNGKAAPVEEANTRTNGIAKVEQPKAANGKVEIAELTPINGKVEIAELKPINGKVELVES
Type: biochemical
Compound COc1cc(/C=C/C(=O)O)cc(OC)c1O [Sinapic acid] has a Km of 35 ± 3 µM. COc1cc(C(=O)O)ccc1O [Vanillic acid] showed a Km of 364 ± 12.8 µM. Compound O=C(O)c1ccc(O)cc1 [4-Hydroxybenzoic acid] has a Km of 315 ± 8.4 µM. Compound COc1cc(C(=O)O)cc(OC)c1O [Syringic acid] has a Km of 262 ± 7 µM.
